Assay results from the supplement of paper PMC10307832.

Compound: CC(C)=CC[C@@H](O)C1=CC(=O)c2c(O)ccc(O)c2C1=O [Shikonin] + O=C(c1cc(Cc2n[nH]c(=O)c3ccccc23)ccc1F)N1CCN(C(=O)C2CC2)CC1 [Olaparib] (partner 8 µM)
Assay: relative viability (nuclei count vs DMSO), 5 days (fraction); higher = more cells survive
Conditions: first compound 0.01 µM
Procedure, shortened: (§1)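 Dosing by pin tool came one day after lung cancer cell lines were seeded in 1536-well plates, using either one drug or a fixed anchor-drug dose plus five library-drug doses (not always all listed) in √10 steps. After 5 days, nuclei were counted on 4× images. Relative viability is treated-well nuclei count divided by vehicle-well nuclei count, and values are medians of duplicate plates.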

| Cell Line | relative viability |
| --- | --- |
| LU99A | 0.256 |
| BEN | 1.08 |
| HARA | 0.557 |
| HCC-78 | 0.911 |
| NCI-H441 | 0.647 |
| LCLC-97TM1 | 0.383 |
| A-427 | 0.802 |
| NCI-H460 | 0.584 |
| NCI-H838 | 0.798 |
| NCI-H1734 | 0.697 |
| NCI-H596 | 0.547 |
| NCI-H2405 | 0.918 |
| NCI-H1395 | 0.407 |
| 201T | 0.843 |
| NCI-H1915 | 0.254 |
| HCC-827 | 0.678 |
| LXF-289 | 1.11 |

| Cell Line | relative viability |
| --- | --- |
| NCI-H2347 | 0.55 |
| NCI-H1651 | 0.173 |
| EPLC-272H | 0.553 |
| NCI-H23 | 0.36 |
| NCI-H1792 | 0.263 |
| NCI-H1355 | 0.811 |
| NCI-H322M | 0.806 |
| NCI-H1437 | 0.661 |
| NCI-H1755 | 0.794 |
| NCI-H2085 | 0.756 |
| HCC-15 | 0.796 |
| NCI-H1793 | 1.12 |
| RERF-LC-KJ | 1.05 |
| EKVX | 0.922 |
| LC-2-ad | 0.736 |
| NCI-H1944 | 0.428 |
| NCI-H1975 | 0.815 |

Same assay, conditions: first compound 0.1 µM

| Cell Line | relative viability |
| --- | --- |
| LU99A | 0.272 |
| BEN | 1.03 |
| HARA | 0.7 |
| HCC-78 | 0.753 |
| NCI-H441 | 0.637 |
| LCLC-97TM1 | 0.539 |
| A-427 | 0.872 |
| NCI-H460 | 0.615 |
| NCI-H838 | 0.845 |
| NCI-H1734 | 0.655 |
| NCI-H596 | 0.728 |
| NCI-H2405 | 0.952 |
| NCI-H1395 | 0.455 |
| 201T | 0.893 |
| NCI-H1915 | 0.268 |
| HCC-827 | 0.562 |
| LXF-289 | 0.966 |

| Cell Line | relative viability |
| --- | --- |
| NCI-H2347 | 0.619 |
| NCI-H1651 | 0.188 |
| EPLC-272H | 0.63 |
| NCI-H23 | 0.248 |
| NCI-H1792 | 0.314 |
| NCI-H1355 | 0.812 |
| NCI-H322M | 0.757 |
| NCI-H1437 | 0.678 |
| NCI-H1755 | 0.909 |
| NCI-H2085 | 0.82 |
| HCC-15 | 0.735 |
| NCI-H1793 | 0.995 |
| RERF-LC-KJ | 1.08 |
| EKVX | 0.907 |
| LC-2-ad | 0.872 |
| NCI-H1944 | 0.408 |
| NCI-H1975 | 0.836 |

Same assay, conditions: first compound 0.3162 µM

| Cell Line | relative viability |
| --- | --- |
| LU99A | 0.233 |
| BEN | 1.02 |
| HARA | 0.492 |
| HCC-78 | 0.964 |
| NCI-H441 | 0.626 |
| LCLC-97TM1 | 0.48 |
| A-427 | 0.708 |
| NCI-H460 | 0.515 |
| NCI-H838 | 0.865 |
| NCI-H1734 | 0.695 |
| NCI-H596 | 0.709 |
| NCI-H2405 | 0.892 |
| NCI-H1395 | 0.416 |
| 201T | 0.869 |
| NCI-H1915 | 0.257 |
| HCC-827 | 0.621 |
| LXF-289 | 1.11 |

| Cell Line | relative viability |
| --- | --- |
| NCI-H2347 | 0.451 |
| NCI-H1651 | 0.161 |
| EPLC-272H | 0.57 |
| NCI-H23 | 0.317 |
| NCI-H1792 | 0.463 |
| NCI-H1355 | 0.786 |
| NCI-H322M | 0.671 |
| NCI-H1437 | 0.601 |
| NCI-H1755 | 0.837 |
| NCI-H2085 | 0.725 |
| HCC-15 | 0.722 |
| NCI-H1793 | 1 |
| RERF-LC-KJ | 0.842 |
| EKVX | 0.889 |
| LC-2-ad | 0.689 |
| NCI-H1944 | 0.414 |
| NCI-H1975 | 0.955 |

Same assay, conditions: first compound 1 µM

| Cell Line | relative viability |
| --- | --- |
| LU99A | 0.222 |
| BEN | 1.01 |
| HARA | 0.574 |
| HCC-78 | 0.755 |
| NCI-H441 | 0.531 |
| LCLC-97TM1 | 0.419 |
| A-427 | 0.795 |
| NCI-H460 | 0.39 |
| NCI-H838 | 0.667 |
| NCI-H1734 | 0.632 |
| NCI-H596 | 0.605 |
| NCI-H2405 | 0.868 |
| NCI-H1395 | 0.427 |
| 201T | 0.951 |
| NCI-H1915 | 0.245 |
| HCC-827 | 0.52 |
| LXF-289 | 1.06 |

| Cell Line | relative viability |
| --- | --- |
| NCI-H2347 | 0.551 |
| NCI-H1651 | 0.178 |
| EPLC-272H | 0.586 |
| NCI-H23 | 0.313 |
| NCI-H1792 | 0.427 |
| NCI-H1355 | 0.776 |
| NCI-H322M | 0.88 |
| NCI-H1437 | 0.521 |
| NCI-H1755 | 0.792 |
| NCI-H2085 | 0.76 |
| HCC-15 | 0.669 |
| NCI-H1793 | 0.914 |
| RERF-LC-KJ | 0.62 |
| EKVX | 0.798 |
| LC-2-ad | 0.765 |
| NCI-H1944 | 0.387 |
| NCI-H1975 | 0.715 |

Compound: CC(C)N(CCCNC(=O)Nc1ccc(C(C)(C)C)cc1)C[C@H]1O[C@@H](n2ccc3c(N)ncnc32)[C@H](O)[C@@H]1O + CS(=O)(=O)N1CCN(Cc2cc3nc(-c4cccc5[nH]ncc45)nc(N4CCOCC4)c3s2)CC1 [Pictilisib] (partner 1 µM)
Assay: as above
Conditions: first compound 0.08 µM
Procedure, shortened: as §1

| Cell Line | relative viability |
| --- | --- |
| LU99A | 0.332 |
| BEN | 0.606 |
| HARA | 0.506 |
| HCC-78 | 0.156 |
| NCI-H441 | 0.442 |
| LCLC-97TM1 | 0.184 |
| A-427 | 0.775 |
| NCI-H460 | 0.305 |
| NCI-H838 | 0.328 |
| NCI-H1734 | 0.405 |
| NCI-H596 | 0.388 |
| NCI-H2405 | 0.506 |
| NCI-H1395 | 0.595 |
| 201T | 0.652 |
| NCI-H1915 | 0.939 |
| HCC-827 | 0.951 |
| LXF-289 | 0.775 |
| NCI-H2347 | 0.45 |
| NCI-H1651 | 0.601 |
| EPLC-272H | 0.286 |
| NCI-H23 | 0.455 |
